pIC50: −log10 of the molar value.

Test [1] has as its target human A2A adenosine receptor (Homo sapiens (Human), UniProt P29274). Briefly: A2A receptor affinity binding assay (radioligand filtration binding or SPA, [3H]SCH58261). Particulars: membranes from HEK293 or CHO cells expressing human A2A; Method (A) filtration or Method (B) SPA.
Test [2] deals with human A2B adenosine receptor (Homo sapiens (Human), UniProt P29275). The test is described as follows: A2B binding affinity radioligand filtration binding assay. To be noted: membranes from HEK293 cells expressing human A2B; tritiated proprietary A2B antagonist.
Sequence of human A2B adenosine receptor (P29275 whole entry): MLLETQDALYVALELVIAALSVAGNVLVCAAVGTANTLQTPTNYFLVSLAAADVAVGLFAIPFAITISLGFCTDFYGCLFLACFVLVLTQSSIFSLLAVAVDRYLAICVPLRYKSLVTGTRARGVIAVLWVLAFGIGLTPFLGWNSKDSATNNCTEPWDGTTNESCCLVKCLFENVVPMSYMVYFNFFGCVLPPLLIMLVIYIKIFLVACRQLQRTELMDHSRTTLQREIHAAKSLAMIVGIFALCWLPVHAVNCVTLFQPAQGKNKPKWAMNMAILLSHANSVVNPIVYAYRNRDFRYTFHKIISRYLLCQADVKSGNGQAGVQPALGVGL

Sequence of human A2A adenosine receptor (P29274 whole entry): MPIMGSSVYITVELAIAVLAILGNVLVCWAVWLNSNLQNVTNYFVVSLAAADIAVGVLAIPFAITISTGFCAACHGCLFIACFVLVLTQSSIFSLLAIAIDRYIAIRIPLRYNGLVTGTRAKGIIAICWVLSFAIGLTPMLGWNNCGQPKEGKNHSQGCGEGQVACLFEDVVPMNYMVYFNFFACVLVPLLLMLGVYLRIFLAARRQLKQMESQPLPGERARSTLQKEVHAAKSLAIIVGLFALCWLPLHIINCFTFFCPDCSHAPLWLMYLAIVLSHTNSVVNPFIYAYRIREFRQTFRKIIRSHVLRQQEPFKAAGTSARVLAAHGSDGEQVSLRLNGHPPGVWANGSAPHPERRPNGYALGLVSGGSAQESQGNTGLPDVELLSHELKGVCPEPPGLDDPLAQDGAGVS

For orientation: pIC50 means the negative decadic logarithm of the IC50, by convention in mol/L. Consider `COc1cccc2c1nc(N)n1nc(C3CC3c3cncc(C(C)(C)O)c3)nc21` (centres unmarked) [Ex-16, 2-{5-[2-(5-amino-7-methoxy[1,2,4]triazolo [1,5-c]quinazolin-2-yl)cyclopropyl]pyridin-3-yl} propan-2-ol], for which the pIC50 in test [1] was 8.40; in test [2] it was 7.81.

Regarding `COc1cccc2c1nc(N)n1nc([C@H]3C[C@@H](c4ccc(C(C)(C)N)cn4)C3)nc21` [Ex-67, 2-((1s,3s)-3-(5-(2-aminopropan-2-yl)pyridin-2-yl)cyclobutyl)-7-methoxy-[1,2,4]triazolo[1,5-c]quinazolin-5-amine], the pIC50 was 8.37 in test [1] and 8.74 in test [2]. The matching figures for `COc1cccc2c1nc(N)n1nc(C3CC3c3cnn(CCO)c3)nc21` (centres unmarked) [Ex-23, 2-{4-[2-(5-amino-7-methoxy[1,2,4]triazolo [1,5-c]quinazolin-2-yl)cyclopropyl]-1H-pyrazol-1-yl} ethan-1-ol]: 8.08 and 6.93. The matching figures for `CCn1cc(C2CC2c2nc3c4cccc(OC)c4nc(N)n3n2)cn1` (centres unmarked) [Ex-14, 2-[2-(1-ethyl-1H-pyrazol-4-yl)cyclopropyl]-7-methoxy[1,2,4]triazolo [1,5-c]quinazolin-5-amine]: 8.48 and 7.25. Consider `COc1cccc2c1nc(N)n1nc([C@@H]3C[C@H]3c3ccc(C(C)(C)O)cc3)nc21` [Ex-1, 2-(4-((1r,2r)-2-(5-amino-7-methoxy-[1,2,4]triazolo[1,5-c]quinazolin-2-yl)cyclopropyl)phenyl)propan-2-ol], for which the values for the pIC50 in test [1] and in test [2] were 7.76 and 7.58, respectively. The matching figures for `COc1cccc2c1nc(N)n1nc(C3CC3c3ccc4nnc(C)n4c3)nc21` (centres unmarked) [Ex-9, 7-methoxy-2-[2-(3-methyl[1,2,4]triazolo [4,3-a]pyridin-6-yl)cyclopropyl][1,2,4] triazolo[1,5-c] quinazolin-5-amine]: 8.70 and 6.47.

As to `COc1cccc2c1nc(N)n1nc(C3CC3c3cccc(NC(C)=O)c3)nc21` (centres unmarked) [Ex-5, N-{3-[2-(5-amino-7-methoxy[1,2,4]triazolo [1,5-c]quinazolin-2-yl)cyclopropyl]phenyl} acetamide], the pIC50 was 9.30 in test [1] and 7.81 in test [2].

Take `COc1cccc2c1nc(N)n1nc(C3CC3c3ccc(C)nc3)nc21` (centres unmarked) [Ex-11, 7-methoxy-2-[2-(6-methylpyridin-3-yl)cyclopropyl][1,2,4] triazolo[1,5-c] quinazolin-5-amine]: the pIC50 was 8.51 in test [1] and 7.11 in test [2]. The matching figures for `COc1cccc2c1nc(N)n1nc(C3CC3c3ccccc3[C@@H](C)O)nc21` (stereo partly drawn) [Ex-12, (1R)-1-{2-[2-(5-amino-7-methoxy[1,2,4]triazolo [1,5-c]quinazolin-2-yl)cyclopropyl]phenyl} ethan-1-ol]: 8.49 and 6.55. For `COc1cccc2c1nc(N)n1nc(C3CC3c3cnc(C)nc3)nc21` (centres unmarked) [Ex-26, 7-methoxy-2-[2-(2-methylpyrimidin-5-yl)cyclopropyl][1,2,4] triazolo[1,5-c] quinazolin-5-amine], the figures for the pIC50 in test [1] and in test [2] were 7.91 and 6.14, respectively. With `CNC(=O)c1ccc(C2CC2c2nc3c4cccc(OC)c4nc(N)n3n2)cc1` (centres unmarked) [Ex-19, 4-[2-(5-amino-7-methoxy[1,2,4]triazolo [1,5-c]quinazolin-2-yl)cyclopropyl]-N-methylbenzamide], the negative-log IC50 (pIC50) in test [1] is 8.24; in test [2] it was 7.48.

Turning to `COc1cccc2c1nc(N)n1nc([C@H]3C[C@H](c4ncc(C(C)(C)N)nc4C)C3)nc21` [Ex-90, 2-((1r,3r)-3-(5-(2-aminopropan-2-yl)-3-methylpyrazin-2-yl)cyclobutyl)-7-methoxy-[1,2,4]triazolo[1,5-c]quinazolin-5-amine], the pIC50 in test [1] was 9.22; in test [2], 7.95.

Consider `COc1cccc2c1nc(N)n1nc(C3CC3C)nc21` (centres unmarked) [Ex-10, 7-methoxy-2-[2-methylcyclopropyl] [1,2,4]triazolo[1,5-c] quinazolin-5-amine], for which the pIC50 in test [1] was 8.59; in test [2] it was 7.34. The matching figures for `COc1cccc2c1nc(N)n1nc(C3CC3c3ccc4c(c3)CNC4=O)nc21` (centres unmarked) [Ex-8, 5-[2-(5-amino-7-methoxy[1,2,4]triazolo [1,5-c]quinazolin-2-yl)cyclopropyl]-2,3-dihydro-1H-isoindol-1-one]: 8.82 and 7.51. For the compound `CNC(=O)c1cccc(C2CC2c2nc3c4cccc(OC)c4nc(N)n3n2)c1` (centres unmarked) [Ex-4, 3-[2-(5-amino-7-methoxy[1,2,4]triazolo [1,5-c]quinazolin-2-yl)cyclopropyl]-N-methylbenzamide], the pIC50 in test [1] is 9.40; in test [2], 7.60. The matching figures for `COc1cccc2c1nc(N)n1nc(C3CC3c3ccc4c(c3)CCNC4)nc21` (centres unmarked) [Ex-38, 7-methoxy-2-[(1r,2r)-2-(1,2,3,4-tetrahydroisoquinolin-6-yl)cyclopropyl]-1,10b-dihydro[1,2,4]triazolo [1,5-c]quinazolin-5-amine]: 8.96 and 8.51. The matching figures for `COc1cccc2c1nc(N)n1nc(C3CC3c3cnc(NCCO)nc3)nc21` (centres unmarked) [Ex-22, 2-({5-[2-(5-amino-7-methoxy[1,2,4]triazolo [1,5-c]quinazolin-2-yl)cyclopropyl]pyrimidin-2-yl}amino)ethan-1-ol]: 8.11 and 6.88. Turning to `COc1cccc2c1nc(N)n1nc(C3CC3Cc3ccc(F)cc3)nc21` (centres unmarked) [Ex-41], the pIC50 in test [1] is 8.15; in test [2], 6.90.

Consider `COc1cccc2c1nc(N)n1nc(C3CC3c3cncc(F)c3)nc21` (centres unmarked) [Ex-18, 2-[2-(5-fluoropyridin-3-yl)cyclopropyl]-7-methoxy[1,2,4]triazolo [1,5-c]quinazolin-5-amine], for which the negative-log IC50 (pIC50) is 8.26 in test [1] and 6.60 in test [2]. Consider `COc1cccc2c1nc(N)n1nc([C@H]3C[C@H](c4ncc(C(C)(C)N)cc4C)C3)nc21` [Ex-83, 2-((1r,3r)-3-(5-(2-aminopropan-2-yl)-3-methylpyridin-2-yl)cyclobutyl)-7-methoxy-[1,2,4]triazolo[1,5-c]quinazolin-5-amine], for which the pIC50 in test [2] is 8.80. Consider `COc1cccc2c1nc(N)n1nc([C@H]3C[C@@H](c4cnc(CN)nc4)C3)nc21` [Ex-112, 2-{(cis)-3-[2-(aminomethyl)pyrimidin-5-yl]cyclobutyl}-7-methoxy[1,2,4]triazolo[1,5-c]quinazolin-5-amine], for which the negative logarithm of the IC50 (pIC50) in test [1] was 8.38. The same measure, in the same setting: under `COc1cccc2c1nc(N)n1nc([C@H]3C[C@H](c4ncc(C(C)(C)N)nc4C(F)(F)F)C3)nc21` [Ex-126, 2-{trans-3-[5-(2-aminopropan-2-yl)-3-(trifluoromethyl)pyrazin-2-yl]cyclobutyl}-7-methoxy[1,2,4]triazolo[1,5-c]quinazolin-5-amine] stands 8.34; under `COc1cccc2c1nc(N)n1nc([C@H]3C[C@H](c4ccc(C(C)N)cn4)C3)nc21` (stereo partly drawn) [Ex-72, 2-{trans-3-[5-(1-aminoethyl)pyridin-2-yl]cyclobutyl}-7-methoxy[1,2,4]triazolo[1,5-c]quinazolin-5-amine], 8.10; under `COc1cccc2c1nc(N)n1nc([C@H]3C[C@H](c4ccc(C5(N)CC(F)(F)C5)cn4)C3)nc21` [Ex-141], 8.51. The same measure, in the same setting: the result for `COc1cccc2c1nc(N)n1nc([C@H]3C[C@@H](c4ccc(N5CCN(C)CC5)nc4)C3)nc21` [Ex-115, 7-methoxy-2-{cis-3-[6-(4-methylpiperazin-1-yl)pyridin-3-yl]cyclobutyl}[1,2,4]triazolo[1,5-c]quinazolin-5-amine] reads 8.77; that for `COc1cccc2c1nc(N)n1nc([C@H]3C[C@@H](c4ccc(C(C)N)cn4)C3)nc21` (stereo partly drawn) [Ex-71, 2-{cis-3-[5-(1-aminoethyl)pyridin-2-yl]cyclobutyl}-7-methoxy[1,2,4]triazolo[1,5-c]quinazolin-5-amine], 7.74.

On to `COc1cccc2c1nc(N)n1nc([C@H]3C[C@H](c4ccc([C@H](N)C(F)F)cn4)C3)nc21` (single isomer, unassigned) [Ex-104], for which, in test [1], the pIC50 is 8.59. Same read-out and setting: the result for `COc1cccc2c1nc(N)n1nc([C@H]3C[C@H](c4ccc(C(C)(N)C(F)F)nc4)C3)nc21` (some centres unmarked) [Ex-92, 2-{(1r,3r)-3-[6-(2-amino-1,1-difluoropropan-2-yl)pyridin-3-yl]cyclobutyl}-7-methoxy[1,2,4]triazolo[1,5-c]quinazolin-5-amine] reads 7.85. Still for that read-out and setting: under `COc1cccc2c1nc(N)n1nc([C@H]3C[C@@H](c4ncc(C(C)(C)N)cc4F)C3)nc21` [Ex-86, 2-{cis-3-[5-(2-aminopropan-2-yl)-3-fluoropyridin-2-yl]cyclobutyl}-7-methoxy[1,2,4]triazolo[1,5-c]quinazolin-5-amine] stands 7.90. Regarding `COc1cccc2c1nc(N)n1nc(C3CC3c3nc4ccccc4n3C)nc21` (centres unmarked) [Ex-3, 7-methoxy-2-[2-(1-methyl-1H-benzimidazol-2-yl)cyclopropyl][1,2,4] triazolo[1,5-c] quinazolin-5-amine], in test [2], the pIC50 was 8.54. As to `COc1cccc2c1nc(N)n1nc([C@H]3C[C@@H](c4ccc([C@@H](N)C(F)F)cn4)C3)nc21` (single isomer, unassigned) [Ex-107], in test [1], the pIC50 is 8.09. In the case of `COc1cccc2c1nc(N)n1nc([C@H]3C[C@@H](c4ccc(C(N)C(F)F)cn4)C3)nc21` (stereo partly drawn) [Ex-74, 2-{cis-3-[5-(1-amino-2,2-difluoroethyl)pyridin-2-yl]cyclobutyl}-7-methoxy[1,2,4]triazolo[1,5-c]quinazolin-5-amine], the pIC50 in test [1] is 8.40. The compound `COc1cccc2c1nc(N)n1nc([C@H]3C[C@H](c4ccc([C@H](N)C(F)(F)F)cn4)C3)nc21` [Ex-77, 2-(trans-3-{5-[(1S)-1-amino-2,2,2-trifluoroethyl]pyridin-2-yl}cyclobutyl)-7-methoxy[1,2,4]triazolo[1,5-c]quinazolin-5-amine] showed a pIC50 in test [1] of 8.89.

`COc1cccc2c1nc(N)n1nc([C@H]3C[C@H](c4ccc([C@@H](N)C(F)F)cn4)C3)nc21` (single isomer, unassigned) [Ex-106] showed a pIC50 in test [1] of 8.39.
